Experimental data published in patent US7074789B2, “Kinase inhibitors” (Amgen Inc., priority 1999, dated 2006).

Tests used:
Type in all cases: biochemical
[1] = molecular target: T1, IGFR-1 (Homo sapiens, UniProt P08069); assay: Kinase inhibition assay (33P transfer), IGFR-1; settings: Table 2, class symbols A-E
T1 construct: Kinases are expressed as either kinase domains or full length constructs; made in house

[2] = molecular target: T2, PDGFRB (Homo sapiens, UniProt P09619); assay: Kinase inhibition assay (33P transfer), PDGFRB; settings: read-out: PDGFRB-1
T2 construct: Kinases are expressed as either kinase domains or full length constructs; made in house

[3] = molecular target: T3, Lck (Homo sapiens, UniProt P06239); assay: Kinase inhibition assay (33P transfer), Lck; settings: Table 3, class symbols; read-out: Lck-1
T3 construct: Kinases are expressed as either kinase domains or full length constructs; made in house
T3 sequence (P06239 whole entry, species assumed, the tested form may be a part): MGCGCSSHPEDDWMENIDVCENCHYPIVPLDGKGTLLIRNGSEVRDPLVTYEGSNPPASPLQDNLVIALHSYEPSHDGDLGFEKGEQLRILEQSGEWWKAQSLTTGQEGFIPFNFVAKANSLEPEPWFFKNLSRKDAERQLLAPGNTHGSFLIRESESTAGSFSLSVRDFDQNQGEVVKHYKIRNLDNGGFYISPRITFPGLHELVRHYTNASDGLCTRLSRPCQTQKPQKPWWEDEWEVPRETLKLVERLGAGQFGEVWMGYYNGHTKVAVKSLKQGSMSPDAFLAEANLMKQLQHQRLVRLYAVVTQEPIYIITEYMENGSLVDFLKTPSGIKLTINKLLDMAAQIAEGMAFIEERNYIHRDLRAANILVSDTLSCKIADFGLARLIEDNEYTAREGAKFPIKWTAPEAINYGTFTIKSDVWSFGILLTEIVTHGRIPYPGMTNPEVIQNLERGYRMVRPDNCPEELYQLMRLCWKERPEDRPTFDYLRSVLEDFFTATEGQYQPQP
Summary of the method: (§1)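 Activity was read as 33P incorporation, counted by liquid scintillation after a 0.5% phosphoric acid wash, into poly(Glu,Tyr) 4:1 or poly(Arg,Ser) 3:1 substrates coated on plates. Enzymes were tagged (GST or polyHis) kinase domains or full-length proteins from bacterial or insect-cell expression, sometimes with regulatory polypeptides.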

[4] = molecular target: T4, Zap-70 (Homo sapiens, UniProt P43403); assay: Kinase inhibition assay (33P transfer), Zap-70; settings: Table 3, class symbols; read-out: Zap-1
T4 construct: Kinases are expressed as either kinase domains or full length constructs; made in house
T4 sequence (P43403 1-619): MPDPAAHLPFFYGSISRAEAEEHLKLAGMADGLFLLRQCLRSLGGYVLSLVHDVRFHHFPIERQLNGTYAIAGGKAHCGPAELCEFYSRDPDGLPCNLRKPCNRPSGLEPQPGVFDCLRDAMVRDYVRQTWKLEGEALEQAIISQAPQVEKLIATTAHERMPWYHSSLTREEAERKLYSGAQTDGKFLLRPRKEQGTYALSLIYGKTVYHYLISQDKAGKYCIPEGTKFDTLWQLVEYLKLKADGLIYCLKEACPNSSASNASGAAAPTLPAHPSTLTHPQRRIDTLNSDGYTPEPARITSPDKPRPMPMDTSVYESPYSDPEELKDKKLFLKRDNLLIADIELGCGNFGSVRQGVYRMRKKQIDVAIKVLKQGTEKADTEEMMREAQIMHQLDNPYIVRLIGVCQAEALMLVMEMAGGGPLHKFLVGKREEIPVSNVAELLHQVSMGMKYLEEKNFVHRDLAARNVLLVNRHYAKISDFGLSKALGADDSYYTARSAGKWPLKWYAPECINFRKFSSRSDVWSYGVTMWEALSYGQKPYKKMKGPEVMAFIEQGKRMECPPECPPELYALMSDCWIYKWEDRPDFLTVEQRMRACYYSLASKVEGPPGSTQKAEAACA
Summary of the method: as §1

[5] = molecular target: T5, EGFR (Homo sapiens, UniProt P00533); assay: Kinase inhibition assay (33P transfer), EGFR; settings: Table 2, class symbols A-E; read-out: EGFR-1
T5 construct: Kinases are expressed as either kinase domains or full length constructs; made in house
T5 sequence (P00533 25-1210, species assumed): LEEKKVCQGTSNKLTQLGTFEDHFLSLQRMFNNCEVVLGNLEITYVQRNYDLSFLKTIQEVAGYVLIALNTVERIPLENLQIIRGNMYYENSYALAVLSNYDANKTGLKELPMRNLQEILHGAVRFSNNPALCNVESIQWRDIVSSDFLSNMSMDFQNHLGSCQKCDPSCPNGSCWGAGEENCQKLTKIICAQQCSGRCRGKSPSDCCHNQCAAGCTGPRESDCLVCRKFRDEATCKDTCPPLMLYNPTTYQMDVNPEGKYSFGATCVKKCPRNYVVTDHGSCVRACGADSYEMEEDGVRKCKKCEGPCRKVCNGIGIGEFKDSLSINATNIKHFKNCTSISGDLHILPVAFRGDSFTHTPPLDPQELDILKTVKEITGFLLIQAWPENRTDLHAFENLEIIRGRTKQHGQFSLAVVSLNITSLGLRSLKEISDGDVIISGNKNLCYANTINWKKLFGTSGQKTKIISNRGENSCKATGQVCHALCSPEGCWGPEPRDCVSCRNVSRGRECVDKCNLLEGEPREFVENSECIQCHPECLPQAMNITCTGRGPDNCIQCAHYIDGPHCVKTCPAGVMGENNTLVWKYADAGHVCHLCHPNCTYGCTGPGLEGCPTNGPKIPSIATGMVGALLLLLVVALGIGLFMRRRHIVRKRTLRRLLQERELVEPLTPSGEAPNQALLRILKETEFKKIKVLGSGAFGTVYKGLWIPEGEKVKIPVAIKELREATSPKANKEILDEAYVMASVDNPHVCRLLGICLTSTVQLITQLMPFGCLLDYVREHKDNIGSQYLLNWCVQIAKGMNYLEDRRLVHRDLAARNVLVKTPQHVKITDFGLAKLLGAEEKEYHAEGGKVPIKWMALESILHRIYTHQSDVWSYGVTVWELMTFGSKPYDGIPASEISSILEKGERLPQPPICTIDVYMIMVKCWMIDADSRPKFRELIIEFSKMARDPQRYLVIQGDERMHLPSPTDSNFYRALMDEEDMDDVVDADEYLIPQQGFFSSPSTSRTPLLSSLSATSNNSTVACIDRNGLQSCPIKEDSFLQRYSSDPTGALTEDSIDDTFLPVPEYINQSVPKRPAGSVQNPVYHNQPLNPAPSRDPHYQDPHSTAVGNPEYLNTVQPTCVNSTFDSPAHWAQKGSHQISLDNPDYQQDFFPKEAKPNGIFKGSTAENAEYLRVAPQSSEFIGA
Summary of the method: (§2)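 Steps: coat wells with poly(Glu,Tyr) 4:1 or poly(Arg,Ser) 3:1; add purified kinase, [33P]ATP and inhibitor; incubate; wash with 0.5% phosphoric acid; add liquid scintillant; count. IC50 corresponds to half-maximal reduction of bound 33P.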

[6] = molecular target: T6, Itk (Homo sapiens, UniProt Q08881); assay: Kinase inhibition assay (33P transfer), Itk; settings: Table 3, class symbols; read-out: Itk-1
T6 construct: Kinases are expressed as either kinase domains or full length constructs; made in house
T6 sequence (Q08881 1-620): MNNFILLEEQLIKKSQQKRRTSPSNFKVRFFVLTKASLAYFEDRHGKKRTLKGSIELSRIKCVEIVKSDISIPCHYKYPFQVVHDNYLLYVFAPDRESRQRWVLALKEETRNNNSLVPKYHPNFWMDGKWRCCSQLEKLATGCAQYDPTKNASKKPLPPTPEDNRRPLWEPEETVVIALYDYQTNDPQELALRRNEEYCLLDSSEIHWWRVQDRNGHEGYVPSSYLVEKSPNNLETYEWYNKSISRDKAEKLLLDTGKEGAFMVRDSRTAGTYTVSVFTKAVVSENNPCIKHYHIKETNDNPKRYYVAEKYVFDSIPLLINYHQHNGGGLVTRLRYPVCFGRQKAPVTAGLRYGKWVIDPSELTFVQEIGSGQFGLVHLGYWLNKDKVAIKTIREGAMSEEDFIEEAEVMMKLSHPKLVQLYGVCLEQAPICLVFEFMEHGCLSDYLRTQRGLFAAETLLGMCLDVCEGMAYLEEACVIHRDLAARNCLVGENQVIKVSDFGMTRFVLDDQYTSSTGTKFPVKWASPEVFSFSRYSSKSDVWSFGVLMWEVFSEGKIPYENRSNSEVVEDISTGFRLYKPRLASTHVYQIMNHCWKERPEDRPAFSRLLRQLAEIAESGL
Summary of the method: as §2

[7] = molecular target: T7, AKT (Homo sapiens, UniProt Q9Y243); assay: Kinase inhibition assay (33P transfer), AKT; settings: Table 2, class symbols A-E; read-out: AKT3-1
T7 construct: Kinases are expressed as either kinase domains or full length constructs; made in house
T7 sequence (Q9Y243 whole entry, the tested form may be a part): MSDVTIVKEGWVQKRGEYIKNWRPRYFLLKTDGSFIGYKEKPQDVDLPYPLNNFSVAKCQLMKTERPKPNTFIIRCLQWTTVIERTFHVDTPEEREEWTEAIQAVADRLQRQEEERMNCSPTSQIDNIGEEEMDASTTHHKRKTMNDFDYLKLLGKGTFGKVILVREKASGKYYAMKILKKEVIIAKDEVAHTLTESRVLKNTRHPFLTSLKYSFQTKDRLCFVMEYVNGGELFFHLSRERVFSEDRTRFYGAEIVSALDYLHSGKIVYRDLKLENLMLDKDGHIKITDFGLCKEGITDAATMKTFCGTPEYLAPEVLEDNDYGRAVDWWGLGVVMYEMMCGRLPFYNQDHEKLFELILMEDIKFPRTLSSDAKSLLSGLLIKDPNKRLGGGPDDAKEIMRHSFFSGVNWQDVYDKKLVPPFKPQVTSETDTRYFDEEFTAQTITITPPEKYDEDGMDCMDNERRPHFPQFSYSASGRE
Summary of the method: as §1

[8] = molecular target: T8, Kdr (Homo sapiens, UniProt P35968); assay: Kinase inhibition assay (33P transfer), Kdr; settings: Table 3, class symbols; read-out: KDR-1
T8 construct: Kinases are expressed as either kinase domains or full length constructs; made in house
Summary of the method: as §1

[9] = molecular target: T9, ErbB2 (Homo sapiens, UniProt P04626); assay: Kinase inhibition assay (33P transfer), ErbB2; settings: read-out: ErbB2-2
T9 construct: Kinases are expressed as either kinase domains or full length constructs; made in house
T9 sequence (P04626 23-1255, species assumed): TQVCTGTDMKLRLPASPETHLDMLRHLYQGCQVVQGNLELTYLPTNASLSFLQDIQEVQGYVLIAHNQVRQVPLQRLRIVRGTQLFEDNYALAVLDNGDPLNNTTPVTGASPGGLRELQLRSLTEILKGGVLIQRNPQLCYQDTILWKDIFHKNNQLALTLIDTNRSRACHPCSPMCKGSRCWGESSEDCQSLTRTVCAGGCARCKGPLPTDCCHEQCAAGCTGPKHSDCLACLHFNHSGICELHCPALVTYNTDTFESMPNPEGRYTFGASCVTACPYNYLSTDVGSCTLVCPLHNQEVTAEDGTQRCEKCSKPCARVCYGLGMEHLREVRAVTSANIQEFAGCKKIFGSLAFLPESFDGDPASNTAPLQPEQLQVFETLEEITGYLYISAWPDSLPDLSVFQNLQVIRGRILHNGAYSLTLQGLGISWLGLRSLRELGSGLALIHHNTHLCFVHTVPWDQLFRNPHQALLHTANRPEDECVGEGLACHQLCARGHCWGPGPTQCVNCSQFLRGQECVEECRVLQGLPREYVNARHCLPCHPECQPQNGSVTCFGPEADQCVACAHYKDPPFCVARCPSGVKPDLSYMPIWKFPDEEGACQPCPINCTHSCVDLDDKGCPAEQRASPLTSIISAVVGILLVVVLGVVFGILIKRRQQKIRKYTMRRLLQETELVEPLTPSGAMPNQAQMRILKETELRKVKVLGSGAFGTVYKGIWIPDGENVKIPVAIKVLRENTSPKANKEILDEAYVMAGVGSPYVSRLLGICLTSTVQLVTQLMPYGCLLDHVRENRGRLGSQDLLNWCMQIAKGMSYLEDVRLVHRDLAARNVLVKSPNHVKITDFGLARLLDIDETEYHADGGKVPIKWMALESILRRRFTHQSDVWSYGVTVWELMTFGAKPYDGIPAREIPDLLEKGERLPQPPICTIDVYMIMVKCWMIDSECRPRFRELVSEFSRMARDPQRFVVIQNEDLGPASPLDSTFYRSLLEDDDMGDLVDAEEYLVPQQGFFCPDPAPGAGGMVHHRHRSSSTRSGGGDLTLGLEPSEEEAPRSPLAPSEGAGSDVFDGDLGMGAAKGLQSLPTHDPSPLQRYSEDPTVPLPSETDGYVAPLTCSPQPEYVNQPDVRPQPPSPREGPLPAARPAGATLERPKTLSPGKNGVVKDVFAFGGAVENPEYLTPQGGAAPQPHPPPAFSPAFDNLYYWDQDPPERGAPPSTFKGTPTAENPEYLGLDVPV
Summary of the method: as §2

[10] = molecular target: T10, c-Met (Homo sapiens, UniProt P08581); assay: Kinase inhibition assay (33P transfer), c-Met; settings: Table 2, class symbols A-E; read-out: Met-1
T10 construct: Kinases are expressed as either kinase domains or full length constructs; made in house
T10 sequence (P08581 25-1390): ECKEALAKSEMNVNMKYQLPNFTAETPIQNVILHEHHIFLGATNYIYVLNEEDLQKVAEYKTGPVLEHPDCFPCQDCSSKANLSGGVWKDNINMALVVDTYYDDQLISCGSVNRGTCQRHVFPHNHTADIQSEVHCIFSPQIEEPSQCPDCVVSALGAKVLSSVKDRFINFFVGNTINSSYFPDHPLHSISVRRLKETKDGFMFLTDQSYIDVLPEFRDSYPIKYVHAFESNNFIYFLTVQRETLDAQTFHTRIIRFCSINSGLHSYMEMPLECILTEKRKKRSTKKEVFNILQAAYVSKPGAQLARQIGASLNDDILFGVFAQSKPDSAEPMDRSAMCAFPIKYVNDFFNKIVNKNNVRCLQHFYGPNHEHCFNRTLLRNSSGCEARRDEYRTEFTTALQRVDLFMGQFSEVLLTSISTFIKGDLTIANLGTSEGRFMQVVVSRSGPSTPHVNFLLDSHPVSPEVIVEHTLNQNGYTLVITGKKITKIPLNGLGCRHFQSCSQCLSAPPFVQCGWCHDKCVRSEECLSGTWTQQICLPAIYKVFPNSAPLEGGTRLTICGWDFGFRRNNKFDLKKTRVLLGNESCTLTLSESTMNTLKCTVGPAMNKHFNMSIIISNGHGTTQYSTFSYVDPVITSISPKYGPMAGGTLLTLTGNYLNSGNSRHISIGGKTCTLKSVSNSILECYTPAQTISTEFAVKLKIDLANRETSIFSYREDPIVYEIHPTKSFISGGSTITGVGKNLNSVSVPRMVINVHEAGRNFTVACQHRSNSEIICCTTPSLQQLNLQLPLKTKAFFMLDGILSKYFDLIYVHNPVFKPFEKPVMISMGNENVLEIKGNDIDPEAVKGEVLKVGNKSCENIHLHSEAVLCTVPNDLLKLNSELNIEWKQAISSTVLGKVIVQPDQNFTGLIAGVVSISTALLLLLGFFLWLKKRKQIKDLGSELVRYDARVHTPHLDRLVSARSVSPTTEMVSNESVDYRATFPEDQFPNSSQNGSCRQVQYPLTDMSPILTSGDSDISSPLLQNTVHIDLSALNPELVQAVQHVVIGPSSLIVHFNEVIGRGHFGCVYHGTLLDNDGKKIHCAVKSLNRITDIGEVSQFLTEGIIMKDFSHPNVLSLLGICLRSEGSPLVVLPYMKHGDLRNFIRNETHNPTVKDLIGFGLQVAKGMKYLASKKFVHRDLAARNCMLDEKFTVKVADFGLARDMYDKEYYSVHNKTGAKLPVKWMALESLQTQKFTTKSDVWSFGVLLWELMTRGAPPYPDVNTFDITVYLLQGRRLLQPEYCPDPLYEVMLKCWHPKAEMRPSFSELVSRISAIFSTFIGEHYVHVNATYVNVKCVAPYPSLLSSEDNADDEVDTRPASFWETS
Summary of the method: as §2

SMILES | IC50 [1] [µM] | IC50 [2] [µM] | IC50 [3] [µM] | IC50 [4] [µM] | IC50 [5] [µM] | IC50 [6] [µM] | IC50 [7] [µM] | IC50 [8] [µM] | IC50 [9] [µM] | IC50 [10] [µM]
COc1cc(Nc2ncnc(-c3cccnc3NC(C)c3cccc4ccccc34)n2)cc(OC)c1OC (centres unmarked) [Compound 845] | > 8.85 | 0.787 to 4.72 | 0.787 to 4.72 | > 8.85 | > 8.85 | > 8.85 | 0.787 to 4.72 | < 0.787 | 4.72 to 6.88 | > 8.85
CNC(=O)c1cccc(Nc2ncnc(Nc3cc(-c4ccco4)[nH]n3)n2)c1 [Compound 826] | 1.06 to 6.38 | 1.06 to 6.38 | 1.06 to 6.38 | > 12 | < 1.06 | 1.06 to 6.38 | > 12 | < 1.06 | 1.06 to 6.38 | 1.06 to 6.38
COc1ccc(Nc2ncnc(Nc3ccc4ncsc4c3)n2)cc1OC [Compound 895] | < 1.05 | < 1.05 | 1.05 to 6.31 | > 11.8 | 1.05 to 6.31 | 1.05 to 6.31 | > 11.8 | 1.05 to 6.31 | 6.31 to 9.2 | > 11.8
O=C(O)Cc1cccc(Nc2ncnc(-c3cccnc3NCc3ccc(F)cc3)n2)c1 [Compound 1100] | > 10.5 | < 0.929 | 8.13 to 10.5 | > 10.5 | 0.929 to 5.58 | > 10.5 | > 10.5 | < 0.929 | 0.929 to 5.58 | 8.13 to 10.5
FC(F)(F)Oc1ccc(Nc2ncnc(Nc3ccc4c(cnn4Cc4ccccc4)c3)n2)cc1 [Compound 906] | 5.03 to 7.33 | > 9.43 | > 9.43 | > 9.43 | 0.838 to 5.03 | > 9.43 | 0.838 to 5.03 | 0.838 to 5.03 | 0.838 to 5.03 | 0.838 to 5.03
COC(=O)c1ccc(-c2cc(Nc3ncnc(Nc4cc(=O)n(-c5ccccc5)[nH]4)n3)[nH]n2)cc1 [Compound 880] | > 9.59 | 0.852 to 5.11 | > 9.59 | > 9.59 | 0.852 to 5.11 | > 9.59 | > 9.59 | 5.11 to 7.46 | 5.11 to 7.46 | 0.852 to 5.11
COc1ccc(Nc2ncnc(N(C)[C@H](C)c3ccccc3)n2)cc1OC [Compound 803] | > 12.3 | > 12.3 | 1.09 to 6.57 | > 12.3 | 1.09 to 6.57 | > 12.3 | > 12.3 | > 12.3 | 6.57 to 9.58 | > 12.3
NC(=O)Cc1cccc(Nc2ncnc(-n3c(NCc4ccccc4)nc4ccccc43)n2)c1 [Compound 967] | > 9.99 | < 0.888 | < 0.888 | > 9.99 | < 0.888 | 7.77 to 9.99 | 7.77 to 9.99 | < 0.888 | 0.888 to 5.33 | 5.33 to 7.77
COC(=O)c1ccc(-c2cc(Nc3ncnc(Nc4cccc(S(=O)(=O)O)c4)n3)[nH]n2)cc1 [Compound 882] | 0.856 to 5.13 | 0.856 to 5.13 | 5.13 to 7.49 | > 9.63 | 0.856 to 5.13 | 0.856 to 5.13 | 5.13 to 7.49 | 0.856 to 5.13 | 0.856 to 5.13 | 0.856 to 5.13
CCOc1ccc(Nc2ncnc(Nc3cc(-c4ccc(C(=O)OC)cc4)n[nH]3)n2)cc1 [Compound 879] | 5.56 to 8.11 | 0.927 to 5.56 | > 10.4 | > 10.4 | 0.927 to 5.56 | 8.11 to 10.4 | > 10.4 | > 10.4 | > 10.4 | 0.927 to 5.56
COc1cc(Nc2ncnc(-c3cccnc3Nc3cccc(C(C)=O)c3)n2)cc(OC)c1OC [Compound 831] | > 9.52 | < 0.847 | > 9.52 | > 9.52 | > 9.52 | > 9.52 | > 9.52 | > 9.52 | > 9.52 | 5.08 to 7.41
COC(=O)c1ccc(-c2cc(Nc3ncnc(Nc4cccc(CCC(=O)O)c4)n3)[nH]n2)cc1 [Compound 992] | < 0.871 | 0.871 to 5.22 | < 0.871 | 0.871 to 5.22 | 0.871 to 5.22 | 0.871 to 5.22 | 5.22 to 7.62 | 0.871 to 5.22 | 0.871 to 5.22 | < 0.871
COc1ccc(Nc2ncnc(Nc3cccc(C#N)c3)n2)cc1OC [Compound 897] | > 12.9 | < 1.15 | > 12.9 | > 12.9 | < 1.15 | 6.89 to 10 | > 12.9 | > 12.9 | > 12.9 | > 12.9
CN(c1cccc(Br)c1)c1ncnc(Nc2cccc(Cc3nnn[nH]3)c2)n1 [Compound 670] | > 10.3 | 0.913 to 5.48 | 0.913 to 5.48 | > 10.3 | < 0.913 | > 10.3 | > 10.3 | 0.913 to 5.48 | < 0.913 | < 0.913
